Results on 11 compounds are retold here after PubChem BioAssay (NCI).

Each structure is given as a SMILES string.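 Results reflect a 48-hour exposure of cells in 96-well plates to compound at five concentrations. Here, GI50 denotes the concentration required for 50% inhibition of growth. TGI is the concentration that stops growth completely.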

Experiment in all cases: DTP human tumour cell line panel, 48 h
In assay [1] the test system is A549 NSCLC.
Assay [2] relates to A498 renal.
The test system of assay [3] is NCI-H522 lung.
Assay [4] has as its system TK-10 renal.
The subject of assay [5] is NCI-H23 lung.
Assay [6] relates to KM12 colon.
In assay [7] the test system is CCRF-CEM leukemia.
The test system of assay [8] is HCC-2998 colon.
For assay [9], the system named is ACHN renal.
In assay [10] the test system is SN12C renal.

For the compound `Cc1ccc(S(=O)(=O)Nc2cccc3c(=O)[nH]cnc23)cc1`, the total growth inhibition concentration (TGI) in assay [1], in assay [2], in assay [3], in assay [4], in assay [5] and in assay [6] was greater than 100 µM each time. Besides, the concentration for total growth inhibition (TGI) in [7], in assay [8], in [9] and in assay [10] was greater than 100 µM throughout.
On to `CN(C)CCNC(=O)c1cccc2c(=O)c3ccccc3oc12`, for which the TGI was greater than 100 µM in assay [1]; 52.8 µM in assay [2]; greater than 100 µM in [5]; greater than 100 µM in assay [6]; greater than 100 µM in assay [7]; greater than 100 µM in [8]. This compound also gave a concentration for total growth inhibition (TGI) in assay [10] greater than 78.7 µM.
Turning to `COC1OC(CS(=O)(=O)O)C(O)C(O)C1O` (stereo not given), the TGI in [2], in [4], in assay [5], in assay [6], in assay [7] and in assay [8] was greater than 100 µM in each case. Moreover, the concentration for total growth inhibition (TGI) in assay [10] is greater than 100 µM.
Take `O=C1C=C(C2OC(CO)C(O)C2O)C(=O)N1` (stereo not given): the TGI in assay [1] is greater than 100 µM; in assay [2], greater than 100 µM; in assay [3] it was 38.5 µM; in [5] it was greater than 100 µM; in [6] it was greater than 100 µM; in assay [7], greater than 89.5 µM. Besides, the TGI in assay [8] and in assay [10] was greater than 100 µM in each case.
For `C=C1C(=O)OC2/C=C(\C(=O)O)CC/C=C(\C)CC(OC(=O)/C=C(\C)CC)C12` (stereo not given), the TGI in assay [1] was 31.6 µM; in [2], 32 µM; in [3], 32.8 µM; in [4], greater than 100 µM; in assay [5] it was 33.2 µM; in assay [6], 27.9 µM. Besides, the total growth inhibition concentration (TGI) was greater than 100 µM in [7], 33.8 µM in [8], 46.2 µM in assay [9] and 31 µM in assay [10].
Regarding `O=C(c1ccccc1)c1ccc2n[se]nc2c1`, the total growth inhibition concentration (TGI) in assay [1], in assay [2], in [3], in assay [4], in assay [5] and in assay [6] was greater than 100 µM in each case. Besides, the concentration for total growth inhibition (TGI) in assay [7] is greater than 100 µM; in assay [8] it was 73.7 µM; in assay [9], greater than 100 µM; in assay [10] it was greater than 100 µM.
Take `CC1(C)[C@@H]2CC[C@]1(C)[C@H](OC(=O)CSC#N)C2`: the TGI in [1], in assay [2], in assay [3], in [4], in assay [5] and in [6] was greater than 100 µM in each case. In addition, the total growth inhibition concentration (TGI) in assay [8], in assay [9] and in assay [10] was greater than 100 µM throughout.
On to `CC1=C2C(O)C(C(C)C(=O)N(C)C)CCC2(C)C=CC1=O` (stereo not given), for which the TGI in assay [1], in assay [2], in assay [3], in [5], in assay [6] and in [7] was greater than 100 µM each time. The TGI in assay [8] and in assay [10] was greater than 100 µM in each case.
As for `CC(=O)C(C(c1ccccc1)N1CCOCC1)N1CCOCC1` (stereo not given), the TGI in assay [1] is greater than 100 µM; in assay [2], greater than 100 µM; in assay [3], greater than 100 µM; in assay [4], 53.7 µM; in [5], greater than 100 µM; in [6], greater than 100 µM. Moreover, the TGI in [7] is greater than 100 µM; in assay [8], 35.8 µM; in assay [9] it was greater than 100 µM; in assay [10], greater than 100 µM.
On to `CCCC(C)c1ccc(OCCCCCCN2CCNCC2)cc1` (stereo not given), for which the GI50 was 1900 nM in assay [1]; 2430 nM in assay [2]; 1800 nM in assay [4]; 2130 nM in assay [5]; 1870 nM in [6]; 2440 nM in [7]. For the same compound, the GI50 is 1840 nM in assay [8], 2230 nM in assay [9] and 2840 nM in assay [10]. Also, the TGI in [1] was 4.34 µM; in assay [2], 9.33 µM; in assay [4], 3.47 µM; in assay [5], 5.62 µM; in [6], 3.85 µM; in assay [7], 7.46 µM. In addition, the concentration for total growth inhibition (TGI) was found to be 3.28 µM in assay [8], 5.32 µM in [9] and 9.66 µM in [10].
For `CCOP(=Nc1ccc(N(C)C)cc1)(OCC)OCC`, the TGI in [1], in [2], in assay [3], in assay [4], in [5] and in assay [6] was greater than 100 µM throughout. Also, the TGI in [8] and in assay [9] was greater than 100 µM in each case.

By TGI is commonly meant the concentration at which net growth stops. A lower TGI goes with greater sensitivity of the cells. Usually GI50 stands for the concentration that inhibits growth by half.
